In ChEMBL document CHEMBL1156042, “First stereoselective total synthesis and anticancer activity of new amide alkaloids of roots of pepper” (Bioorg Med Chem Lett, 2009):
≈ marks a conversion by molar mass, not a printed value.

Experiments:
Type in all cases: functional, cell-based
HT-29 = experiment: Anticancer activity against human HT-29 cells by MTT method
MCF7 = experiment: Anticancer activity against human MCF7 cells by MTT method
A549 = experiment: Anticancer activity against human A549 cells by MTT method
[1] = Homo sapiens, HT-29, read-out: IC50
[2] = Homo sapiens, A549, read-out: IC50

Compound	IC50 (HT-29; [1]) [µg/mL]	IC50 (MCF7)	IC50 (A549; [2]) [µg/mL]	IC50 (A549; a549)	IC50 (HT-29; ht-29)
CCCCC[C@@H](O)[C@H](O)/C=C/C(=O)N1CCCCC1	125 (≈ 464 µM)	Not Active	135 (≈ 501 µM)	–	–
CCC[C@@H](O)[C@H](O)/C=C/C(=O)NCC(C)C	181 (≈ 789 µM)	Not Active	–	Not Active	–
CCCCC[C@@H](O)[C@@H](O)/C=C/C(=O)N1CCCCC1	–	Not Active	182 (≈ 676 µM)	–	Not Active
